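Compound exposure: 48 hours, 5 concentrations, 96-well plates. TGI denotes the concentration required for complete inhibition of growth.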 Where a SMILES comes first, the peptide text is derived from it. [ ]: non-standard residue; d: D form. The star is where a group is joined. Cbz = O=C(OCc1ccccc1)*; Aib = CC(C)(N)C(=O)O; OBn = c1ccc(CO*)cc1
How the values were obtained:
Assay in all cases: NCI anticancer screen, dose series, 48 h
A549 NSCLC = tested on: A549 NSCLC
ACHN renal = tested on: ACHN renal
BT-549 breast = tested on: BT-549 breast
CAKI-1 renal = tested on: CAKI-1 renal
CCRF-CEM leukemia = tested on: CCRF-CEM leukemia
COLO 205 colon = tested on: COLO 205 colon
DU-145 prostate = tested on: DU-145 prostate
EKVX NSCLC = tested on: EKVX NSCLC
HCC-2998 colon = tested on: HCC-2998 colon
HCT-116 colon = tested on: HCT-116 colon
HOP-62 NSCLC = tested on: HOP-62 NSCLC
HOP-92 NSCLC = tested on: HOP-92 NSCLC
HS 578T breast = tested on: HS 578T breast
HT29 colon = tested on: HT29 colon
IGROV1 ovarian = tested on: IGROV1 ovarian
K-562 leukemia = tested on: K-562 leukemia
KM12 colon = tested on: KM12 colon
LOX IMVI melanoma = tested on: LOX IMVI melanoma
M14 melanoma = tested on: M14 melanoma
MALME-3M melanoma = tested on: MALME-3M melanoma
MCF7 breast = tested on: MCF7 breast
MDA-MB-231 breast = tested on: MDA-MB-231 breast
MDA-MB-435 = tested on: MDA-MB-435
MDA-N = tested on: MDA-N
MOLT-4 leukemia = tested on: MOLT-4 leukemia
NCI-H226 lung = tested on: NCI-H226 lung
NCI-H23 lung = tested on: NCI-H23 lung
NCI-H460 lung = tested on: NCI-H460 lung
NCI-H522 lung = tested on: NCI-H522 lung
NCI/ADR-RES ovarian = tested on: NCI/ADR-RES ovarian
OVCAR-3 ovarian = tested on: OVCAR-3 ovarian
OVCAR-4 ovarian = tested on: OVCAR-4 ovarian
OVCAR-5 ovarian = tested on: OVCAR-5 ovarian
OVCAR-8 ovarian = tested on: OVCAR-8 ovarian
PC-3 prostate = tested on: PC-3 prostate
RPMI-8226 leukemia = tested on: RPMI-8226 leukemia
RXF 393 renal = tested on: RXF 393 renal
SF-268 CNS = tested on: SF-268 CNS
SF-295 CNS = tested on: SF-295 CNS
SF-539 CNS = tested on: SF-539 CNS
SK-MEL-2 melanoma = tested on: SK-MEL-2 melanoma
SK-MEL-28 melanoma = tested on: SK-MEL-28 melanoma
SK-MEL-5 melanoma = tested on: SK-MEL-5 melanoma
SK-OV-3 ovarian = tested on: SK-OV-3 ovarian
SN12C renal = tested on: SN12C renal
SNB-19 CNS = tested on: SNB-19 CNS
SNB-75 CNS = tested on: SNB-75 CNS
SR leukemia = tested on: SR leukemia
SW-620 colon = tested on: SW-620 colon
T-47D breast = tested on: T-47D breast
TK-10 renal = tested on: TK-10 renal
U251 CNS = tested on: U251 CNS
UACC-257 melanoma = tested on: UACC-257 melanoma
UACC-62 melanoma = tested on: UACC-62 melanoma
UO-31 renal = tested on: UO-31 renal
786-0 renal = tested on: 786-0 renal
HCT-15 colon = tested on: HCT-15 colon
HL-60(TB) leukemia = tested on: HL-60(TB) leukemia

O=C1N(Cc2ccccc2)C2CSCC2N1Cc1ccccc1 (configuration not stated)
TGI (A549 NSCLC): > 100 µM | TGI (ACHN renal): > 100 µM | TGI (BT-549 breast): 53.5 µM | TGI (CAKI-1 renal): > 100 µM | TGI (CCRF-CEM leukemia): > 100 µM | TGI (COLO 205 colon): 32.8 µM | TGI (DU-145 prostate): > 100 µM | TGI (EKVX NSCLC): 79.3 µM | TGI (HCC-2998 colon): 62.9 µM | TGI (HCT-116 colon): > 100 µM | TGI (HOP-62 NSCLC): 58.3 µM | TGI (HOP-92 NSCLC): 77.7 µM | TGI (HS 578T breast): 66.5 µM | TGI (HT29 colon): 38.1 µM | TGI (IGROV1 ovarian): > 100 µM | TGI (K-562 leukemia): > 100 µM | TGI (KM12 colon): > 100 µM | TGI (LOX IMVI melanoma): 93.1 µM | TGI (M14 melanoma): 33.7 µM | TGI (MALME-3M melanoma): 46.3 µM | TGI (MCF7 breast): > 100 µM | TGI (MDA-MB-231 breast): 68.3 µM | TGI (MDA-MB-435): 51.5 µM | TGI (MDA-N): 80 µM | TGI (MOLT-4 leukemia): 97 µM | TGI (NCI-H226 lung): 64.6 µM | TGI (NCI-H23 lung): 85 µM | TGI (NCI-H460 lung): 55.8 µM | TGI (NCI-H522 lung): 24.2 µM | TGI (NCI/ADR-RES ovarian): 69.4 µM | TGI (OVCAR-3 ovarian): 43.9 µM | TGI (OVCAR-4 ovarian): > 100 µM | TGI (OVCAR-5 ovarian): > 100 µM | TGI (OVCAR-8 ovarian): > 100 µM | TGI (PC-3 prostate): > 100 µM | TGI (RPMI-8226 leukemia): 59 µM | TGI (RXF 393 renal): 69.4 µM | TGI (SF-268 CNS): > 100 µM | TGI (SF-295 CNS): > 100 µM | TGI (SF-539 CNS): 76 µM | TGI (SK-MEL-2 melanoma): 46.4 µM | TGI (SK-MEL-28 melanoma): > 100 µM | TGI (SK-MEL-5 melanoma): 30.3 µM | TGI (SK-OV-3 ovarian): > 100 µM | TGI (SN12C renal): > 100 µM | TGI (SNB-19 CNS): > 100 µM | TGI (SNB-75 CNS): > 100 µM | TGI (SR leukemia): 93.6 µM | TGI (SW-620 colon): > 100 µM | TGI (T-47D breast): 91.8 µM | TGI (TK-10 renal): 85.9 µM | TGI (U251 CNS): > 100 µM | TGI (UACC-257 melanoma): 69.3 µM | TGI (UACC-62 melanoma): 79.2 µM | TGI (UO-31 renal): 93.5 µM

CC(NC(=O)C(C)(C)NC(=O)C(CC(=O)OCc1ccccc1)NC(=O)OCc1ccccc1)C(N)=O (configuration not stated) (Cbz-Asp(OBn)-[Aib]-Ala-NH2; configuration not given here)
TGI (786-0 renal): > 100 µM | TGI (A549 NSCLC): > 100 µM | TGI (ACHN renal): > 100 µM | TGI (BT-549 breast): > 100 µM | TGI (CAKI-1 renal): > 100 µM | TGI (CCRF-CEM leukemia): > 100 µM | TGI (COLO 205 colon): > 100 µM | TGI (DU-145 prostate): > 100 µM | TGI (EKVX NSCLC): > 100 µM | TGI (HCC-2998 colon): > 100 µM | TGI (HCT-116 colon): > 100 µM | TGI (HCT-15 colon): > 100 µM | TGI (HL-60(TB) leukemia): > 100 µM | TGI (HOP-62 NSCLC): > 100 µM | TGI (HOP-92 NSCLC): > 100 µM | TGI (HS 578T breast): > 100 µM | TGI (HT29 colon): > 100 µM | TGI (IGROV1 ovarian): > 100 µM | TGI (K-562 leukemia): > 100 µM | TGI (KM12 colon): > 100 µM | TGI (LOX IMVI melanoma): > 100 µM | TGI (M14 melanoma): > 100 µM | TGI (MALME-3M melanoma): > 100 µM | TGI (MCF7 breast): > 100 µM | TGI (MDA-MB-231 breast): > 100 µM | TGI (MDA-MB-435): > 100 µM | TGI (MDA-N): > 100 µM | TGI (MOLT-4 leukemia): > 100 µM | TGI (NCI-H226 lung): > 100 µM | TGI (NCI-H23 lung): > 100 µM | TGI (NCI-H460 lung): > 100 µM | TGI (NCI-H522 lung): > 100 µM | TGI (NCI/ADR-RES ovarian): > 100 µM | TGI (OVCAR-3 ovarian): > 100 µM | TGI (OVCAR-4 ovarian): > 100 µM | TGI (OVCAR-5 ovarian): > 100 µM | TGI (OVCAR-8 ovarian): > 100 µM | TGI (PC-3 prostate): > 100 µM | TGI (RPMI-8226 leukemia): > 100 µM | TGI (RXF 393 renal): > 100 µM | TGI (SF-268 CNS): > 100 µM | TGI (SF-295 CNS): > 100 µM | TGI (SF-539 CNS): > 100 µM | TGI (SK-MEL-2 melanoma): > 100 µM | TGI (SK-MEL-28 melanoma): > 100 µM | TGI (SK-MEL-5 melanoma): > 100 µM | TGI (SK-OV-3 ovarian): > 100 µM | TGI (SN12C renal): > 100 µM | TGI (SNB-19 CNS): > 100 µM | TGI (SR leukemia): > 100 µM | TGI (SW-620 colon): > 100 µM | TGI (T-47D breast): > 100 µM | TGI (TK-10 renal): > 100 µM | TGI (U251 CNS): > 100 µM | TGI (UACC-257 melanoma): > 100 µM | TGI (UACC-62 melanoma): > 100 µM | TGI (UO-31 renal): > 100 µM

Source: PubChem BioAssay (NCI)
